Patent US9738684B2, “N-terminally modified linear and branched polyamine conjugated peptidomimetics as antimicrobials agents” (COUNCIL OF SCIENTIFIC & INDUSTRIAL RESEARCH, priority 2015, dated 2017)

System: MRSA (ATCC 33591) biofilm
Assay: Inhibition of biofilm formation (alamar blue, crystal violet)
Type: cell-based, Staphylococcus aureus
Settings: sub-MICb; for reduction in metabolic activity (alamar blue), biofilm formation: printed as 'reduction up to'
Method: To evaluate potential of designed active peptidomimetics against MRSA biofilms a methodology as used previously was employed with minor modifications [Antimicrob. Agents Chemother., 57:2726-2737, 2013]. Briefly, freshly inoculated MRSA (ATCC 33591) was grown in biofilm growth media (TSB supplemented with 0.5% w/v NaCl and 0.25% w/v glucose) overnight. Next day, the culture was diluted in fresh biofilm growth media to 10^5 CFU/mL. 200 μl of diluted culture was dispensed in wells of a 96-well polystyrene plate for biofilm formation. […] Biofilm cultures were re-incubated at 37° C. for 24 h. After removal of medium, the biofilms were further washed twice with sterile NaCl/Pi buffer and assessed for metabolic activity (alamar blue assay) and biomass quantification (Crystal violet assay).

Row | Structure (SMILES) | % biomass reduction (crystal violet), biofilm formation | reduction in metabolic activity (alamar blue), biofilm formation
1 | CCCCCCCCCC(=O)NC(Cc1c[nH]c2ccccc12)C(=O)NC(Cc1c[nH]c2ccccc12)C(=O)NCCCNCCCCNCCCN (stereo not shown) [1d] | 28.2±11.1% | 26.4±3.3%
2 | NCCCNCCCCNCCCNC(=O)C(Cc1c[nH]c2ccccc12)NC(=O)C(Cc1c[nH]c2ccccc12)NC(=O)Cc1ccc(C(F)(F)F)cc1 (stereo not shown) [1c] | 19.8±5.6% | 33.1±5.7%
